From ChEMBL document CHEMBL3769324, “Acetophenone derivatives: novel and potent small molecule inhibitors of monoamine oxidase B” (Medchemcomm, 2015) come the findings set out here.

Where only a bound is given, the exact number is not on record here.

For one series, the species on record is Homo sapiens. The series can be described thus: Selectivity index, ratio of IC50 for human MAOA to IC50 for human MAOB.
Series [1] concerns the target T1, Amine oxidase [flavin-containing] B (Homo sapiens, UniProt P27338).
T1 sequence (P27338 whole entry): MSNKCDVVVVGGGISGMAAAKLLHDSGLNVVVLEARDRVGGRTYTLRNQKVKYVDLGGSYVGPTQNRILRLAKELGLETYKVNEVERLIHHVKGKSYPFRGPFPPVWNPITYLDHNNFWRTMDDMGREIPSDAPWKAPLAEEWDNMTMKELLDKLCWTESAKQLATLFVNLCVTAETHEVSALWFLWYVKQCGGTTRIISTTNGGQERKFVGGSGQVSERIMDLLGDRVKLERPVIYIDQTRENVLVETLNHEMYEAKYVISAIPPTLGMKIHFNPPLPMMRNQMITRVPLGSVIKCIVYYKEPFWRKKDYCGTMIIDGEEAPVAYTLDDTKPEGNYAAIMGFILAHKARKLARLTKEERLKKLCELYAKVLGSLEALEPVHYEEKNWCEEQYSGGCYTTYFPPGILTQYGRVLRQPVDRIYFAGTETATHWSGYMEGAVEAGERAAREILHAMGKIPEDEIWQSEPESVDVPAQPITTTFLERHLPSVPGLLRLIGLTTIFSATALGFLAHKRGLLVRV
Description: Inhibition of human MAOB using p-tyramine as substrate after 15 mins by Amplex Red MAO assay.

Series [2] addresses T2, Amine oxidase [flavin-containing] A (Homo sapiens, UniProt P21397).
T2 sequence (P21397 whole entry): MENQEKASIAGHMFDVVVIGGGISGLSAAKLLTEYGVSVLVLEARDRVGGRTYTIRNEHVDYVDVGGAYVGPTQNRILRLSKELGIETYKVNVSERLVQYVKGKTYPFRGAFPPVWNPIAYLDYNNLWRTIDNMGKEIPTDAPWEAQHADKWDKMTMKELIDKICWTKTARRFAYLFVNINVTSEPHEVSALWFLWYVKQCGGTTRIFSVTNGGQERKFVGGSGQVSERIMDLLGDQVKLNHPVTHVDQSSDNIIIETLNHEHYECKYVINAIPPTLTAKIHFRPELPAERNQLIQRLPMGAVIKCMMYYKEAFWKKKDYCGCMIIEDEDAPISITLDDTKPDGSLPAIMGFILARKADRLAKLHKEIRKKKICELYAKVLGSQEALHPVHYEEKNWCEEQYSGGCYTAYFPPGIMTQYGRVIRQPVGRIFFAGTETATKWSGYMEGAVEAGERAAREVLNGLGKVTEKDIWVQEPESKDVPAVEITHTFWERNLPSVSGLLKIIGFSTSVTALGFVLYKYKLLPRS
The series can be described thus: Inhibition of human MAOA using p-tyramine as substrate at 100 uM after 15 mins by Amplex Red MAO assay. The conditions noted are these: 0.25 h.

A further series has as its system SH-SY5Y. The series can be described thus: Neurotoxicity against human SH-SY5Y cells assessed as cell viability at 3 to 50 uM after 48 hrs by MTT assay. The class given is toxicity, cell-based.
Series [3] addresses T1, Amine oxidase [flavin-containing] B. The series can be described thus: Competitive inhibition of human MAOB using 50 to 500 uM of p-tyramine as substrate up to 20 nM by Lineweaver-Burk plot analysis.
The target in series [4] is T2, Amine oxidase [flavin-containing] A. The series can be described thus: Inhibition of human MAOA using p-tyramine as substrate after 15 mins by Amplex Red MAO assay.
Series [5] concerns the target T1, Amine oxidase [flavin-containing] B. Description: Inhibition of MAOB (unknown origin).
The target of series [6] is T2, Amine oxidase [flavin-containing] A. The series can be described thus: Inhibition of MAOA (unknown origin).
In series [7] the target is T1, Amine oxidase [flavin-containing] B. The series can be described thus: Reversible inhibition of human MAOB using p-tyramine as substrate preincubated for 60 mins.

As for `CC(=O)c1cccc(OCc2cccc([N+](=O)[O-])c2)c1`, in the series filed under Homo sapiens, the Ratio IC50 is over 877. Besides, in [1], the IC50 is 114 nM. Further, the inhibition at 100 µM in series [2] is 17.8%.
On the same counts, the results for `CC(=O)c1ccc(OCc2ccc(Br)cc2)cc1` are over 1170, 85.6 nM and 23.2%.
In [2], `CC(=O)c1ccc(OCc2ccc(F)cc2)cc1` yielded an inhibition at 100 µM of 43.5%. Also, the values for the Activity entry (in the series on SH-SY5Y; in [3]) were “Non-toxic” and “Active”, respectively.
In the case of `CC(=O)c1ccc(OCc2ccccc2)cc1`, the Ratio IC50 in the series listed under Homo sapiens is over 909. Further, in series [1], the IC50 came out at 110 nM. Testing at 100 µM in series [2] gave an inhibition of 8.19%.
Regarding `CC(=O)c1cccc(OCc2ccc(C(F)(F)F)cc2)c1`, in the series filed under Homo sapiens, the Ratio IC50 was over 2320. In series [1], this molecule came in with a concentration for half-maximal inhibition (IC50) of 43.2 nM. This molecule showed an inhibition at 100 µM in series [2] of 27.2%.
With `CC(=O)c1cccc(OCc2cccc(Cl)c2)c1`, the Ratio IC50 in the series listed under Homo sapiens was found to be 1370. Further, the IC50 in [1] came to 34.2 nM; in series [4], 46800 nM.
Turning to `CC(=O)c1ccc(OCc2ccc(Br)cc2)cc1O`, the IC50 in series [5] was 4 nM; in series [6], 15800 nM.
Regarding `CC(=O)c1ccc(OCc2ccccc2C(F)(F)F)cc1`, the Ratio IC50 in the series filed under Homo sapiens worked out at 385. The values for the IC50 in series [1] and in series [4] were 183 nM and 70500 nM, respectively.
As to `O=C1CCCc2cc(OCc3ccc(I)cc3)ccc21`, the IC50 is 4.5 nM in [5] and 1290 nM in [6].
`CC(=O)c1ccc(OCc2cccc([N+](=O)[O-])c2)cc1`: the Ratio IC50 in the series filed under Homo sapiens was found to be 493. Besides, the IC50 in series [1] was found to be 104 nM; in [4] it was 51300 nM.
As for `O=C1CCc2ccc(OCc3ccc(Br)cc3)cc2N1`, the IC50 in series [5] worked out at 2.9 nM; in series [6] it was 7980 nM.
In the case of `CC(=O)c1ccc(OCc2cccc(C)c2)cc1`, the Ratio IC50 in the series listed under Homo sapiens is over 1160. In addition, inhibition in series [1] was half-maximal at 86.3 nM (IC50). For the same molecule, the inhibition at 100 µM in [2] turned out to be 32.3%.
Take `CC(=O)c1cccc(OCc2ccccc2)c1`: the Ratio IC50 in the series filed under Homo sapiens was over 51.3. The 50% inhibitory concentration (IC50) in series [1] was 1950 nM. In series [2], this molecule returned an inhibition at 100 µM of 31%.
For `CC(=O)c1ccc(OCc2cccc(C(F)(F)F)c2)cc1`, the Ratio IC50 in the series filed under Homo sapiens is over 1720. Further, the IC50 in series [1] was determined as 58.2 nM. Also, the inhibition at 100 µM in series [2] came out at 48.9%.
In turn, `C[C@H](NCc1ccc(OCc2cccc(F)c2)cc1)C(N)=O` [SAFINAMIDE] gave an inhibition at 100 µM in [2] of 9.74%.
In the case of `CC(=O)c1ccc(OCc2ccc(C(F)(F)F)cc2)cc1`, in the series listed under Homo sapiens, the Ratio IC50 was over 1280. In addition, in series [1], the IC50 came out at 77.8 nM. In addition, in series [2], testing at 100 µM gave an inhibition of 26.4%.
Take `CC(=O)c1cccc(OCc2ccc(Br)cc2)c1`: in [4], the IC50 worked out at 48700 nM.
For the molecule `CC(=O)c1cccc(OCc2ccc(F)cc2)c1`, the Ratio IC50 in the series filed under Homo sapiens is over 1160. Moreover, in [1], half-maximal inhibition (IC50) was put at 86.4 nM. This molecule showed an inhibition at 100 µM in [2] of 49.6%.
In the case of `CC(=O)c1ccc(OCc2ccccc2F)cc1`, the Ratio IC50 in the series filed under Homo sapiens was over 1760. For the same molecule, half-maximal inhibition in series [1] (IC50) was put at 56.9 nM. In series [2], this molecule returned an inhibition at 100 µM of 47.1%.
With `CC(=O)c1ccc(OCc2ccc([N+](=O)[O-])cc2)cc1`, the Ratio IC50 in the series listed under Homo sapiens is over 1040. Further, the half-inhibitory concentration (IC50) in series [1] came to 96.5 nM. The same molecule showed an inhibition at 100 µM in series [2] of 33.8%.
As for `CC(=O)c1ccc(OCc2cc(F)c(F)c(F)c2)cc1`, the Ratio IC50 in the series listed under Homo sapiens is over 1190. The molecule also came in with an IC50 in [1] of 84.1 nM. The molecule further yielded an inhibition at 100 µM in [2] of 44.3%.
Take `CC(=O)c1ccc(OCc2ccccc2C)cc1`: the Ratio IC50 in the series filed under Homo sapiens was over 1300. In addition, the IC50 in [1] is 77.1 nM. Further, the inhibition at 100 µM in series [2] was found to be 42.9%.
For `CC(=O)c1ccc(OCc2ccc(F)cc2F)cc1`, in the series filed under Homo sapiens, the Ratio IC50 was over 3660. The IC50 in series [1] was found to be 27.3 nM. For the same molecule, at 100 µM the inhibition in [2] was 45.7%.
With `CC(=O)c1cccc(OCc2ccc(C)cc2)c1`, in the series listed under Homo sapiens, the Ratio IC50 is over 714. Also, the half-maximal inhibitory concentration (IC50) in [1] was 140 nM. Further, the inhibition at 100 µM in [2] amounted to 23%.
Regarding `CC(=O)c1ccc(OCc2ccc(Cl)cc2)cc1`, the Ratio IC50 in the series listed under Homo sapiens is 1480. In addition, the IC50 in [1] was 63.2 nM; in [4], 93600 nM.
In the case of `CC(=O)c1ccc(OCc2ccccc2[N+](=O)[O-])cc1`, the Ratio IC50 in the series listed under Homo sapiens was over 352. The midpoint of inhibition in [1], the IC50, lay at 284 nM. Also, in series [2], testing at 100 µM gave an inhibition of 34%. The “inhibition (INH)” value in series [7] is “Active”.
Take `CC(=O)c1ccc(OCc2cccc(Br)c2)cc1`: in the series filed under Homo sapiens, the Ratio IC50 was over 467. In addition, half-maximal inhibition in series [1] (IC50) was put at 214 nM. In series [2], this molecule gave an inhibition at 100 µM of 48.3%.
On the same counts, the results for `CC(=O)c1ccc(OCc2cccc(F)c2)cc1` are over 1200, 83.1 nM and 48.4%.
Turning to `CC(=O)c1cccc(OCc2cccc(F)c2)c1`, the Ratio IC50 in the series filed under Homo sapiens is over 518. Besides, the IC50 in [1] worked out at 193 nM. This molecule also came in with an inhibition at 100 µM in [2] of 31%.
On the same counts, the results for `CC(=O)c1ccc(OCc2ccc(C)cc2)cc1` are over 980, 102 nM and 5.96%.
Consider `CC(=O)c1cccc(OCc2ccc(Cl)cc2)c1`, for which the Activity entry is recorded as “Non-toxic” in the series on SH-SY5Y and “Active” in series [3]. This molecule yielded an IC50 in series [4] of 39700 nM.
As for `CC(=O)c1ccc(OCc2ccc(F)c(F)c2)cc1`, in the series filed under Homo sapiens, the Ratio IC50 is 1150. Moreover, the IC50 in [1] amounted to 67.9 nM; in [4], 78300 nM.
For `CC(=O)c1cccc(OCc2cccc(C(F)(F)F)c2)c1`, in the series listed under Homo sapiens, the Ratio IC50 was over 4720. The same molecule displayed an IC50 in series [1] of 21.2 nM. Moreover, the inhibition at 100 µM in series [2] came out at 46.7%. For the same molecule, in series [7], the “inhibition (INH)” value is recorded as “Active”.
As to `CC(=O)c1ccc(OCc2cccc(Cl)c2)cc1`, the IC50 in series [4] was found to be 83300 nM.
`CC(=O)c1cccc(OCc2cccc(Br)c2)c1`: the Ratio IC50 in the series listed under Homo sapiens was over 1040. In series [1], this molecule displayed an IC50 of 96.3 nM. Also, the inhibition at 100 µM in series [2] was 49.1%.
Regarding `CC(=O)c1ccc(OCc2ccccc2Cl)cc1`, the Ratio IC50 in the series listed under Homo sapiens was 288. The IC50 was determined as 311 nM in [1] and 89600 nM in series [4].
As for `C#CCNCc1cc2cc(OCc3ccccc3)ccc2[nH]1`, the IC50 turned out to be 11 nM in [5] and 790 nM in series [6].
In the case of `CC(=O)c1cccc(OCc2ccc([N+](=O)[O-])cc2)c1`, the Ratio IC50 in the series filed under Homo sapiens came out at 1180. Besides, the IC50 in [1] turned out to be 75.4 nM; in series [4], 88300 nM.
Consider `CC(=O)c1cccc(OCc2cccc(C)c2)c1`, for which the Ratio IC50 in the series filed under Homo sapiens was over 112. The molecule further had an IC50 in series [1] of 893 nM. For the same molecule, in [2], testing at 100 µM gave an inhibition of 31.1%.

As usually defined, the IC50 is the midpoint of a concentration-inhibition curve. High values mean weaker potency, low ones greater potency. As a reminder, the inhibition is the share of the control response that was lost under treatment. Lower therefore signals little suppression.
